Results from patent publication US10213427B2 (Incyte Corporation, priority 2010, dated 2019).

target: FGFR3 enzyme (Millipore) (Homo sapiens (Human), UniProt P22607); test: FGFR3 Enzymatic Assay; assay type: biochemical; settings: FRET peptide phosphorylation, 140 μM ATP
Method: The inhibitor potency of compounds of the invention was measured in an enzyme assay that measures peptide phosphorylation using FRET measurements to detect product formation. Inhibitors were serially diluted in DMSO and a volume of 0.5 μL was transferred to the wells of a 384-well plate. A 10 μL volume of FGFR3 enzyme (Millipore) diluted in assay buffer (50 mM HEPES, 10 mM MgCl2, 1 mM EGTA, 0.01% Tween-20, 5 mM DTT, pH 7.5) was added to the plate and pre-incubated for 5-10 minutes. Appropriate controls (enzyme blank and enzyme with no inhibitor) were included on the plate. […] The plate was incubated at 25° C. for 1 hr. […] The plate was allowed to equilibrate for ˜1 hr before scanning the wells on a PheraStar plate reader.
GraphPad prism3 was used to analyze the data. The IC50 values were derived by fitting the data to the equation for a sigmoidal dose-response with a variable slope. Y=Bottom+(Top−Bottom)/(1+10^((Log IC50−X)*HillSlope)) where X is the logarithm of concentration and Y is the response.

Chain of FGFR3 enzyme (Millipore) (P22607 23-806): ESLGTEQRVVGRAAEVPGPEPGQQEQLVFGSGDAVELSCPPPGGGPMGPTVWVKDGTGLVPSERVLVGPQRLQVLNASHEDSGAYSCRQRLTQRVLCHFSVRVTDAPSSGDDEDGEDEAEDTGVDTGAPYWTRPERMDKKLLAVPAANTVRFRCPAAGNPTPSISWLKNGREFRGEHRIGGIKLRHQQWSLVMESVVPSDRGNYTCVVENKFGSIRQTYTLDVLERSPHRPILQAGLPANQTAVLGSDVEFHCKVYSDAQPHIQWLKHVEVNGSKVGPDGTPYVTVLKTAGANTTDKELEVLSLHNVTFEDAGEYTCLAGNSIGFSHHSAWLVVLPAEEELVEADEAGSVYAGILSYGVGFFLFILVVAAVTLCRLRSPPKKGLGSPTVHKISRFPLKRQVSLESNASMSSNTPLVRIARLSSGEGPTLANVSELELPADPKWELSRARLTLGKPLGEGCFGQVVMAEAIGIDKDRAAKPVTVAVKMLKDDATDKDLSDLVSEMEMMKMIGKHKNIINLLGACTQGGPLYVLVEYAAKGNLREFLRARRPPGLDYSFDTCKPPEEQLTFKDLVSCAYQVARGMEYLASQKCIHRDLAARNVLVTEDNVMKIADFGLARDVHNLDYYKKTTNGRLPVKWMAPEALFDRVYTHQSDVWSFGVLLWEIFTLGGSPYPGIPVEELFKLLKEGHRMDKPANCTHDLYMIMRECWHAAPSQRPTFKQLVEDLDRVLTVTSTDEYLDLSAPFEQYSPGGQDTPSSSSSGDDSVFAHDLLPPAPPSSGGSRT

Structure (SMILES) | IC50 [nM]
CC(C(=O)NC1CCOCC1)n1cc(-c2cnn3c(-c4cccc(NC(=O)NCC(F)(F)F)c4)cnc3c2)cn1 (centres unmarked) [Example 57, N-(Tetrahydro-2H-pyran-4-yl)-2-(4-{3-[3-({[(2,2,2-trifluoroethyl)amino]carbonyl}amino)phenyl]imidazo[1,2-b]pyridazin-7-yl}-1H-pyrazol-1-yl)propanamide] | < 10
CC(C(=O)N1CCOCC1)n1cc(-c2cnn3c(-c4cccc(NC(=O)NCC(F)(F)F)c4)cnc3c2)cn1 (centres unmarked) [Example 58, N-(3-{7-[1-(1-Methyl-2-morpholin-4-yl-2-oxoethyl)-1H-pyrazol-4-yl]imidazo[1,2-b]pyridazin-3-yl}phenyl)-N′-(2,2,2-trifluoroethyl)urea] | < 10
CC(C(=O)N(C)C1CCOCC1)n1cc(-c2cnn3c(-c4cccc(NC(=O)NCC(F)(F)F)c4)cnc3c2)cn1 (centres unmarked) [Example 59, N-Methyl-N-(tetrahydro-2H-pyran-4-yl)-2-(4-{3-[3-({[(2,2,2-trifluoroethyl)amino]carbonyl}amino)phenyl]imidazo[1,2-b]pyridazin-7-yl}-1H-pyrazol-1-yl)propanamide] | < 10
CC(C(=O)N1CCN(C)CC1)n1cc(-c2cnn3c(-c4cccc(NC(=O)NCC(F)(F)F)c4)cnc3c2)cn1 (centres unmarked) [Example 60, N-[3-(7-{1-[1-Methyl-2-(4-methylpiperazin-1-yl)-2-oxoethyl]-1H-pyrazol-4-yl}imidazo[1,2-b]pyridazin-3-yl)phenyl]-N′-(2,2,2-trifluoroethyl)urea] | < 10
CC(C(=O)NCc1ccccn1)n1cc(-c2cnn3c(-c4cccc(NC(=O)NCC(F)(F)F)c4)cnc3c2)cn1 (centres unmarked) [Example 61, N-(Pyridin-2-ylmethyl)-2-(4-{3-[3-({[(2,2,2-trifluoroethyl)amino]carbonyl}amino)phenyl]imidazo[1,2-b]pyridazin-7-yl}-1H-pyrazol-1-yl)propanamide] | < 10
CC(C(=O)NCCN1CCCC1=O)n1cc(-c2cnn3c(-c4cccc(NC(=O)NCC(F)(F)F)c4)cnc3c2)cn1 (centres unmarked) [Example 62, N-[2-(2-Oxopyrrolidin-1-yl)ethyl]-2-(4-{3-[3-({[(2,2,2-trifluoroethyl)amino]carbonyl}amino)phenyl]imidazo[1,2-b]pyridazin-7-yl}-1H-pyrazol-1-yl)propanamide] | < 10
CC(C(=O)NCC#N)n1cc(-c2cnn3c(-c4cccc(NC(=O)NCC(F)(F)F)c4)cnc3c2)cn1 (centres unmarked) [Example 66, N-(Cyanomethyl)-2-(4-{3-[3-({[(2,2,2-trifluoroethyl)amino]carbonyl}amino)phenyl]imidazo[1,2-b]pyridazin-7-yl}-1H-pyrazol-1-yl)propanamide] | < 10
CC(C(=O)N1CCC(C#N)C1)n1cc(-c2cnn3c(-c4cccc(NC(=O)NCC(F)(F)F)c4)cnc3c2)cn1 (centres unmarked) [Example 67, N-[3-(7-{1-[2-(3-Cyanopyrrolidin-1-yl)-1-methyl-2-oxoethyl]-1H-pyrazol-4-yl}imidazo[1,2-b]pyridazin-3-yl)phenyl]-N′-(2,2,2-trifluoroethyl)urea] | < 10
COC1CCN(C(=O)C(C)n2cc(-c3cnn4c(-c5cccc(NC(=O)NCC(F)(F)F)c5)cnc4c3)cn2)C1 (centres unmarked) [Example 68, N-[3-(7-{1-[2-(3-Methoxypyrrolidin-1-yl)-1-methyl-2-oxoethyl]-1H-pyrazol-4-yl}imidazo[1,2-b]pyridazin-3-yl)phenyl]-N′-(2,2,2-trifluoroethyl)urea] | < 10
COC1CCN(C(=O)C(C)n2cc(-c3cnn4c(-c5cccc(NC(=O)NCC(F)(F)F)c5)cnc4c3)cn2)CC1 (centres unmarked) [Example 69, N-[3-(7-{1-[2-(4-Methoxypiperidin-1-yl)-1-methyl-2-oxoethyl]-1H-pyrazol-4-yl}imidazo[1,2-b]pyridazin-3-yl)phenyl]-N′-(2,2,2-trifluoroethyl)urea] | < 10
CC(C(=O)N1CCC(C#N)CC1)n1cc(-c2cnn3c(-c4cccc(NC(=O)NCC(F)(F)F)c4)cnc3c2)cn1 (centres unmarked) [Example 70, N-[3-(7-{1-[2-(4-Cyanopiperidin-1-yl)-1-methyl-2-oxoethyl]-1H-pyrazol-4-yl}imidazo[1,2-b]pyridazin-3-yl)phenyl]-N′-(2,2,2-trifluoroethyl)urea] | < 10
CC(C(=O)NC1CCN(C)CC1)n1cc(-c2cnn3c(-c4cccc(NC(=O)NCC(F)(F)F)c4)cnc3c2)cn1 (centres unmarked) [Example 71, N-(1-Methylpiperidin-4-yl)-2-(4-{3-[3-({[(2,2,2-trifluoroethyl)amino]carbonyl}amino)phenyl]imidazo[1,2-b]pyridazin-7-yl}-1H-pyrazol-1-yl)propanamide] | < 10
CC(C(=O)N1CC(C#N)C1)n1cc(-c2cnn3c(-c4cccc(NC(=O)NCC(F)(F)F)c4)cnc3c2)cn1 (centres unmarked) [Example 72, N-[3-(7-{1-[2-(3-Cyanoazetidin-1-yl)-1-methyl-2-oxoethyl]-1H-pyrazol-4-yl}imidazo[1,2-b]pyridazin-3-yl)phenyl]-N′-(2,2,2-trifluoroethyl)urea] | < 10
Cn1ccc(S(=O)(=O)N2CC(CC#N)(n3cc(-c4cnn5c(-c6cccc(NC(=O)NCC(F)(F)F)c6)cnc5c4)cn3)C2)n1 [Example 73, N-{3-[7-(1-{3-(Cyanomethyl)-1-[(1-methyl-1H-pyrazol-3-yl)sulfonyl]azetidin-3-yl}-1H-pyrazol-4-yl)imidazo[1,2-b]pyridazin-3-yl]phenyl}-N′-(2,2,2-trifluoroethyl)urea] | < 10
N#CCC1(n2cc(-c3cnn4c(-c5cccc(NC(=O)NCC(F)(F)F)c5)cnc4c3)cn2)CN(CC2CC2)C1 [Example 83, N-[3-(7-{1-[3-(Cyanomethyl)-1-(cyclopropylmethyl)azetidin-3-yl]-1H-pyrazol-4-yl}imidazo[1,2-b]pyridazin-3-yl)phenyl]-N′-(2,2,2-trifluoroethyl)urea] | 10 to 25

Other lines, results leading:

IC50 [nM] | Structure (SMILES)
< 10 | Cc1oncc1S(=O)(=O)N1CC(CC#N)(n2cc(-c3cnn4c(-c5cccc(NC(=O)NCC(F)(F)F)c5)cnc4c3)cn2)C1 [Example 74, N-{3-[7-(1-{3-(Cyanomethyl)-1-[(5-methylisoxazol-4-yl)sulfonyl]azetidin-3-yl}-1H-pyrazol-4-yl)imidazo[1,2-b]pyridazin-3-yl]phenyl}-N′-(2,2,2-trifluoroethyl)urea]
< 10 | COCC(=O)N1CC(CC#N)(n2cc(-c3cnn4c(-c5cccc(NC(=O)NCC(F)(F)F)c5)cnc4c3)cn2)C1 [Example 75, N-[3-(7-{1-[3-(Cyanomethyl)-1-(methoxyacetyl)azetidin-3-yl]-1H-pyrazol-4-yl}imidazo[1,2-b]pyridazin-3-yl)phenyl]-N′-(2,2,2-trifluoroethyl)urea]
< 10 | CN(C)CC(=O)N1CC(CC#N)(n2cc(-c3cnn4c(-c5cccc(NC(=O)NCC(F)(F)F)c5)cnc4c3)cn2)C1 [Example 76, N-{3-[7-(1-{3-(Cyanomethyl)-1-[(dimethylamino)acetyl]azetidin-3-yl}-1H-pyrazol-4-yl)imidazo[1,2-b]pyridazin-3-yl]phenyl}-N′-(2,2,2-trifluoroethyl)urea]
< 10 | CC(CC#N)n1cc(-c2cnn3c(-c4cccc(NC(=O)NCC(F)(F)F)c4)cnc3c2)cn1 (centres unmarked) [Example 89, N-(3-{7-[1-(2-Cyano-1-methylethyl)-1H-pyrazol-4-yl]imidazo[1,2-b]pyridazin-3-yl}phenyl)-N′-(2,2,2-trifluoroethyl)urea]
< 10 | N#CCC(n1cc(-c2cnn3c(-c4cccc(NC(=O)NCC(F)(F)F)c4)cnc3c2)cn1)C(F)(F)F (centres unmarked) [Example 90, N-[3-(7-{1-[1-(Cyanomethyl)-2,2,2-trifluoroethyl]-1H-pyrazol-4-yl}imidazo[1,2-b]pyridazin-3-yl)phenyl]-N′-(2,2,2-trifluoroethyl)urea]
< 10 | N#CCC(c1ccco1)n1cc(-c2cnn3c(-c4cccc(NC(=O)NCC(F)(F)F)c4)cnc3c2)cn1 (centres unmarked) [Example 91, N-[3-(7-{1-[2-Cyano-1-(2-furyl)ethyl]-1H-pyrazol-4-yl}imidazo[1,2-b]pyridazin-3-yl)phenyl]-N′-(2,2,2-trifluoroethyl)urea]
< 10 | N#CCC(C1CC1)n1cc(-c2cnn3c(-c4cccc(NC(=O)NCC(F)(F)F)c4)cnc3c2)cn1 (centres unmarked) [Example 92, N-(3-{7-[1-(2-Cyano-1-cyclopropylethyl)-1H-pyrazol-4-yl]imidazo[1,2-b]pyridazin-3-yl}phenyl)-N′-(2,2,2-trifluoroethyl)urea]
< 10 | N#CCC(c1ccccc1)n1cc(-c2cnn3c(-c4cccc(NC(=O)NCC(F)(F)F)c4)cnc3c2)cn1 (centres unmarked) [Example 93, N-(3-{7-[1-(2-Cyano-1-phenylethyl)-1H-pyrazol-4-yl]imidazo[1,2-b]pyridazin-3-yl}phenyl)-N′-(2,2,2-trifluoroethyl)urea]
> 25 | CNC(=O)Nc1cccc(-c2cnc3cc(-c4cccc(C(=O)NCc5ccccc5F)c4)cnn23)c1 [Example 96, N-(2-Fluorobenzyl)-3-[3-(3-{[(methylamino)carbonyl]amino}phenyl)imidazo[1,2-b]pyridazin-7-yl]benzamide]
> 25 | CNC(=O)Nc1cccc(-c2cnc3cc(-c4cccc(C(=O)NC(C)c5ccccc5F)c4)cnn23)c1 (centres unmarked) [Example 97, N-[1-(2-Fluorophenyl)ethyl]-3-[3-(3-{[(methylamino)carbonyl]amino}phenyl)imidazo[1,2-b]pyridazin-7-yl]benzamide]
< 10 | CNC(=O)C(C)c1ccc(-c2cnn3c(-c4cccc(NC(=O)NCC(F)(F)F)c4)cnc3c2)cc1 (centres unmarked) [Example 98, N-Methyl-2-(4-{3-[3-({[(2,2,2-trifluoroethyl)amino]carbonyl}amino)phenyl]imidazo[1,2-b]pyridazin-7-yl}phenyl)propanamide]
